ChEMBL document CHEMBL4507290 (2021)

How the values were obtained:
[1] = system: Tyrosine-protein kinase ABL1 (Homo sapiens), P00519 [H396P]; settings: Compound concentration 1000.0 nM
[2] = system: ALK tyrosine kinase receptor (Homo sapiens), Q9UM73 [C1156Y]; settings: Compound concentration 1000.0 nM
[3] = system: ALK tyrosine kinase receptor (Homo sapiens), Q9UM73 [L1196M]; settings: Compound concentration 1000.0 nM
[4] = molecular target: Calcium/calmodulin-dependent protein kinase type 1 (Homo sapiens) (UniProt Q14012); settings: Compound concentration 1000.0 nM
[5] = molecular target: Calcium/calmodulin-dependent protein kinase type 1D (Homo sapiens) (UniProt Q8IU85); settings: Compound concentration 1000.0 nM
[6] = molecular target: Cyclin-dependent kinase 3 (Homo sapiens) (UniProt Q00526); settings: Compound concentration 1000.0 nM
[7] = molecular target: Casein kinase I isoform gamma-3 (Homo sapiens) (UniProt Q9Y6M4); settings: Compound concentration 1000.0 nM
[8] = molecular target: Serine/threonine-protein kinase 17B (Homo sapiens) (UniProt O94768); settings: Compound concentration 1000.0 nM
[9] = system: Epidermal growth factor receptor (Homo sapiens), P00533 [G719C]; settings: Compound concentration 1000.0 nM
[10] = system: Epidermal growth factor receptor (Homo sapiens), P00533 [T790M]; settings: Compound concentration 1000.0 nM
[11] = molecular target: Receptor tyrosine-protein kinase erbB-2 (Homo sapiens) (UniProt P04626); settings: Compound concentration 1000.0 nM
[12] = molecular target: Mitogen-activated protein kinase 7 (Homo sapiens) (UniProt Q13164); settings: Compound concentration 1000.0 nM
[13] = molecular target: Tyrosine-protein kinase Fgr (Homo sapiens) (UniProt P09769); settings: Compound concentration 1000.0 nM
[14] = molecular target: Vascular endothelial growth factor receptor 1 (Homo sapiens) (UniProt P17948); settings: Compound concentration 1000.0 nM
[15] = system: Receptor-type tyrosine-protein kinase FLT3 (Homo sapiens), P36888 [K663Q]; settings: Compound concentration 1000.0 nM
[16] = molecular target: Receptor-type tyrosine-protein kinase FLT3 (Homo sapiens) (UniProt P36888); settings: Compound concentration 1000.0 nM
[17] = molecular target: Rhodopsin kinase GRK7 (Homo sapiens) (UniProt Q8WTQ7); settings: Compound concentration 1000.0 nM
[18] = molecular target: Glycogen synthase kinase-3 beta (Homo sapiens) (UniProt P49841); settings: Compound concentration 1000.0 nM
[19] = molecular target: Hormonally up-regulated neu tumor-associated kinase (Homo sapiens) (UniProt P57058); settings: Compound concentration 1000.0 nM
[20] = molecular target: Interleukin-1 receptor-associated kinase 4 (Homo sapiens) (UniProt Q9NWZ3); settings: Compound concentration 1000.0 nM
[21] = system: Mast/stem cell growth factor receptor Kit (Homo sapiens), P10721 [L576P]; settings: Compound concentration 1000.0 nM
[22] = system: Leucine-rich repeat serine/threonine-protein kinase 2 (Homo sapiens), Q5S007 [G2019S]; settings: Compound concentration 1000.0 nM
[23] = molecular target: Serine/threonine-protein kinase MAK (Homo sapiens) (UniProt P20794); settings: Compound concentration 1000.0 nM
[24] = molecular target: MAP/microtubule affinity-regulating kinase 3 (Homo sapiens) (UniProt P27448); settings: Compound concentration 1000.0 nM
[25] = molecular target: Microtubule-associated serine/threonine-protein kinase 1 (Homo sapiens) (UniProt Q9Y2H9); settings: Compound concentration 1000.0 nM
[26] = molecular target: Dual specificity mitogen-activated protein kinase kinase 2 (Homo sapiens) (UniProt P36507); settings: Compound concentration 1000.0 nM
[27] = molecular target: Maternal embryonic leucine zipper kinase (Homo sapiens) (UniProt Q14680); settings: Compound concentration 1000.0 nM
[28] = molecular target: Mitogen-activated protein kinase kinase kinase 11 (Homo sapiens) (UniProt Q16584); settings: Compound concentration 1000.0 nM
[29] = molecular target: Serine/threonine-protein kinase 3 (Homo sapiens) (UniProt Q13188); settings: Compound concentration 1000.0 nM
[30] = molecular target: Myosin light chain kinase 2, skeletal/cardiac muscle (Homo sapiens) (UniProt Q9H1R3); settings: Compound concentration 1000.0 nM
[31] = molecular target: Serine/threonine-protein kinase Nek1 (Homo sapiens) (UniProt Q96PY6); settings: Compound concentration 1000.0 nM
[32] = molecular target: Serine/threonine-protein kinase Nek11 (Homo sapiens) (UniProt Q8NG66); settings: Compound concentration 1000.0 nM
[33] = molecular target: Serine/threonine-protein kinase Nek3 (Homo sapiens) (UniProt P51956); settings: Compound concentration 1000.0 nM
[34] = system: Phosphatidylinositol 4,5-bisphosphate 3-kinase catalytic subunit alpha isoform (Homo sapiens), P42336 [I800L]; settings: Compound concentration 1000.0 nM
[35] = molecular target: Phosphatidylinositol 5-phosphate 4-kinase type-2 beta (Homo sapiens) (UniProt P78356); settings: Compound concentration 1000.0 nM
[36] = molecular target: Serine/threonine-protein kinase PLK4 (Homo sapiens) (UniProt O00444); settings: Compound concentration 1000.0 nM
[37] = molecular target: Ribosomal protein S6 kinase alpha-5 (Homo sapiens) (UniProt O75582); settings: Compound concentration 1000.0 nM
[38] = molecular target: SNF-related serine/threonine-protein kinase (Homo sapiens) (UniProt Q9NRH2); settings: Compound concentration 1000.0 nM
[39] = molecular target: Serine/threonine-protein kinase 35 (Homo sapiens) (UniProt Q8TDR2); settings: Compound concentration 1000.0 nM
[40] = molecular target: Dual specificity testis-specific protein kinase 1 (Homo sapiens) (UniProt Q15569); settings: Compound concentration 1000.0 nM
[41] = molecular target: Dual specificity protein kinase TTK (Homo sapiens) (UniProt P33981); settings: Compound concentration 1000.0 nM
[42] = molecular target: Serine/threonine-protein kinase 32A (Homo sapiens) (UniProt Q8WU08); settings: Compound concentration 1000.0 nM
[43] = molecular target: GABA-A receptor; anion channel (Rattus norvegicus) (UniProt O09028+P15431+P18506+P18508+P19969+P20236+P23574+P23576+P28471+P28473+P30191+P62813+P63079+P63138+Q91ZM7+Q9ES14); settings: Compound concentration 10.0 uM
Rattus norvegicus = species on record: Rattus norvegicus; settings: Compound concentration 10.0 uM

Sequence of MAP/microtubule affinity-regulating kinase 3 (Homo sapiens) (P27448 whole entry, looked up): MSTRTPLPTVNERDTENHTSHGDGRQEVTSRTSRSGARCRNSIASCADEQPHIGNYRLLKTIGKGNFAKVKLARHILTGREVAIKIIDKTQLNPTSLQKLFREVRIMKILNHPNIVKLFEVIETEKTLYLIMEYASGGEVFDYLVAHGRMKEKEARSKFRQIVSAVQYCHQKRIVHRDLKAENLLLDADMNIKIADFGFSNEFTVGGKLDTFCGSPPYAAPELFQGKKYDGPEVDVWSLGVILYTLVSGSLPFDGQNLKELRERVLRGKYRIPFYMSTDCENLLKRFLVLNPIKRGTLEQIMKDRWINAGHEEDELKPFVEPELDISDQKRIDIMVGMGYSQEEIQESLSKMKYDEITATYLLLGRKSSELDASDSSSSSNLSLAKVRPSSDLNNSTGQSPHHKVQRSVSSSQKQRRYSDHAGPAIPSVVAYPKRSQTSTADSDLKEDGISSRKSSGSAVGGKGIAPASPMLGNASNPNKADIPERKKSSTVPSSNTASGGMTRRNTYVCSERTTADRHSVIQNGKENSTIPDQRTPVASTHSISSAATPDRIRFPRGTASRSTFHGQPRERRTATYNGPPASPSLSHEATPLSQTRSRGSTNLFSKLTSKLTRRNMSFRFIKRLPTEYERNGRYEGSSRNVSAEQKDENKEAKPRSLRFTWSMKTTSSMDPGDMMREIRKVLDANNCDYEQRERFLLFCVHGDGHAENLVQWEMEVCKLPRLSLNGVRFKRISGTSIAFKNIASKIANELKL
Sequence of Serine/threonine-protein kinase 35 (Homo sapiens) (Q8TDR2 whole entry): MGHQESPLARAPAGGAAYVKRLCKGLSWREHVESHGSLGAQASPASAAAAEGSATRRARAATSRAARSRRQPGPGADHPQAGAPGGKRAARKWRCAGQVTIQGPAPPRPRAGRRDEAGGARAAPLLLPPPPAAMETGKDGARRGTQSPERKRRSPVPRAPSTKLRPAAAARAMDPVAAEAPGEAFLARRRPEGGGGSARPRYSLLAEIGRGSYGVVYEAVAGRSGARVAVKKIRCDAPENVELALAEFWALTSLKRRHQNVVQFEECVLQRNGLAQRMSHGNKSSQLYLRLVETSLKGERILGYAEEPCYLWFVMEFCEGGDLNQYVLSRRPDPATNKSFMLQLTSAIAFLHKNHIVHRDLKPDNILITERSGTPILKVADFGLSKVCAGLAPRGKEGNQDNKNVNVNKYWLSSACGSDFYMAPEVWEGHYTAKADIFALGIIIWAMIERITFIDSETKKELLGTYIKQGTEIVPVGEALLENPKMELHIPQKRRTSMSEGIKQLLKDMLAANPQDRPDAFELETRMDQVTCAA
Sequence of Hormonally up-regulated neu tumor-associated kinase (Homo sapiens) (P57058 whole entry): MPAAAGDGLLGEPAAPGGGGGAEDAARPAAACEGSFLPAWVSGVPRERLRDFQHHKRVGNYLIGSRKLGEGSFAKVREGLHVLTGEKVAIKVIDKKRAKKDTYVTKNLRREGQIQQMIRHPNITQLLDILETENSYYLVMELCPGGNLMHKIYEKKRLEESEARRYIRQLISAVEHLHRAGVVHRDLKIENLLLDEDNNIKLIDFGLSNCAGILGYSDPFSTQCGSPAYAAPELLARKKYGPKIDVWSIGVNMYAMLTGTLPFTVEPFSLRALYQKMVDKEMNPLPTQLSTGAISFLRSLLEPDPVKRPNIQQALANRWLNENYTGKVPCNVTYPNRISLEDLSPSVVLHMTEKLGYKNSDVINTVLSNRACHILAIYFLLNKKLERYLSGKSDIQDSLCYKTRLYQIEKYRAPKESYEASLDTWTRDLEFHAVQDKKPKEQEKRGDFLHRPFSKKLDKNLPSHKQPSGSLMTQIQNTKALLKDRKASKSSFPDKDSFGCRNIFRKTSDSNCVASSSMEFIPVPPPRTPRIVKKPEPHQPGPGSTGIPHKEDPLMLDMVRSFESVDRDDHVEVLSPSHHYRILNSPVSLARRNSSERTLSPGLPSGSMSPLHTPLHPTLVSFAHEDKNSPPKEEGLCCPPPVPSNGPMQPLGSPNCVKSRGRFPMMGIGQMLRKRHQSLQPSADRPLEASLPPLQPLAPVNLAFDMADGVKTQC
Sequence of Myosin light chain kinase 2, skeletal/cardiac muscle (Homo sapiens) (Q9H1R3 whole entry): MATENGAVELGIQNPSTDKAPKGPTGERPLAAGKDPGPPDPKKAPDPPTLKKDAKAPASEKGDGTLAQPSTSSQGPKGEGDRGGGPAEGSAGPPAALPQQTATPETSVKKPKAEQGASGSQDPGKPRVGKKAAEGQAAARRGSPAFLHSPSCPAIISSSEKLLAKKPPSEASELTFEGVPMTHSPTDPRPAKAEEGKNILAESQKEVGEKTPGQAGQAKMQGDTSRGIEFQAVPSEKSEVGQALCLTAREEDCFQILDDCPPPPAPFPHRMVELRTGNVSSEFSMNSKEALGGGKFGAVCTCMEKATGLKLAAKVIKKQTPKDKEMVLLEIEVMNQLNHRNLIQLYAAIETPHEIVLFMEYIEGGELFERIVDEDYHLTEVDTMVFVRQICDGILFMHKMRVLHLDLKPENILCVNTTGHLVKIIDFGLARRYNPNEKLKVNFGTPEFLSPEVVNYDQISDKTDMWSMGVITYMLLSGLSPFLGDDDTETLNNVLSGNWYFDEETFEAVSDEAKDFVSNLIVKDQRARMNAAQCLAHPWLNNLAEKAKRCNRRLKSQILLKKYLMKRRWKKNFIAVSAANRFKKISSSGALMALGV
Sequence of Cyclin-dependent kinase 3 (Homo sapiens) (Q00526 whole entry, looked up, canonical isoform): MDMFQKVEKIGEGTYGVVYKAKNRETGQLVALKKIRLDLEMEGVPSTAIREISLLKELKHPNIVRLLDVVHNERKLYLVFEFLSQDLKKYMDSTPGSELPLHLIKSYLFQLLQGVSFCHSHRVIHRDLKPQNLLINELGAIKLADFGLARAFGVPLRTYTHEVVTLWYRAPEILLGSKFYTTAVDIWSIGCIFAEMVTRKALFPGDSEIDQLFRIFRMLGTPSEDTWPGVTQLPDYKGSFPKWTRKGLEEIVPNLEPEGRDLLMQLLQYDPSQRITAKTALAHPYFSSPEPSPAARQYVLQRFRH
Sequence of ALK tyrosine kinase receptor (Homo sapiens), Q9UM73 [C1156Y] (Q9UM73 whole entry C1156Y, looked up): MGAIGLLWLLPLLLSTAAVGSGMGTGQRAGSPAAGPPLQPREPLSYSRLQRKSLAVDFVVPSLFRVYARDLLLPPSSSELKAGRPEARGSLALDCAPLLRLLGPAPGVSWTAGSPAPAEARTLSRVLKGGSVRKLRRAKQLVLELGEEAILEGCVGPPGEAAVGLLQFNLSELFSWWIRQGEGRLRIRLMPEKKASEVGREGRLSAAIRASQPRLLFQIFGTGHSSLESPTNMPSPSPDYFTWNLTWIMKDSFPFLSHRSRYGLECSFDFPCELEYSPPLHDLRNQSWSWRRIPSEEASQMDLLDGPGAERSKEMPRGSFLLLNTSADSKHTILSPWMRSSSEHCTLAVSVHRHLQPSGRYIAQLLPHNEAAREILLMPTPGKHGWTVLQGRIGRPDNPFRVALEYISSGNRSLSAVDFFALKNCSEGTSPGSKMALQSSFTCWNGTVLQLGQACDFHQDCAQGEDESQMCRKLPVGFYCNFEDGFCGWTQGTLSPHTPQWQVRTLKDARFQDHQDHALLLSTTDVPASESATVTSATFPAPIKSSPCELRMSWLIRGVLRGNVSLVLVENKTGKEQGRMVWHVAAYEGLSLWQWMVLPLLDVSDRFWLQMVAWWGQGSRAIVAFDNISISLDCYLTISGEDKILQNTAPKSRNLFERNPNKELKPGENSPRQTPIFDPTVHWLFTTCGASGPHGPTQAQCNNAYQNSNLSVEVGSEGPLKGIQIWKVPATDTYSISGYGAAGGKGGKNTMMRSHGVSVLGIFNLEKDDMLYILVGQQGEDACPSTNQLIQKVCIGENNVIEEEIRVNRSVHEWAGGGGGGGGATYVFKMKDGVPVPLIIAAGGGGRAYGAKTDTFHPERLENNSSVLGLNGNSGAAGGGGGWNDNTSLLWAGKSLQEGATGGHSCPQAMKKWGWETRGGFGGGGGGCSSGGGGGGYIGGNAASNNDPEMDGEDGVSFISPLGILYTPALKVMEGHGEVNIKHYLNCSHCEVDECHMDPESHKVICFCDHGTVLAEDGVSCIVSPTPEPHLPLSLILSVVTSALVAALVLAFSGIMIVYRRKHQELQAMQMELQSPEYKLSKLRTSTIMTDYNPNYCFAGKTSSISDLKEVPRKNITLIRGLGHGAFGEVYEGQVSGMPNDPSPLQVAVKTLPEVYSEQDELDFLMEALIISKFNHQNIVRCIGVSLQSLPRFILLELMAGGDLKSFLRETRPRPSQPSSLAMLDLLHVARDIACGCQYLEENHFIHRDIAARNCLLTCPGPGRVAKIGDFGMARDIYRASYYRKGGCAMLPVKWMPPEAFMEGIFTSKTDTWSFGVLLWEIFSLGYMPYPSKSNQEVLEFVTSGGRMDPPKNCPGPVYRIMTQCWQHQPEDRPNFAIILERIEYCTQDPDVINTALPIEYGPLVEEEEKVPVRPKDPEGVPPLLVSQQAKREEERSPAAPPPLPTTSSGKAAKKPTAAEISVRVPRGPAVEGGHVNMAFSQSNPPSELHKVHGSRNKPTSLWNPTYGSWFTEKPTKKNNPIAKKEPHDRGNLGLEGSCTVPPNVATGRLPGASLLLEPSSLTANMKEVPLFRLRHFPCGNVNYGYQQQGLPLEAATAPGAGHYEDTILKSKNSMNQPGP
Sequence of Phosphatidylinositol 5-phosphate 4-kinase type-2 beta (Homo sapiens) (P78356 whole entry): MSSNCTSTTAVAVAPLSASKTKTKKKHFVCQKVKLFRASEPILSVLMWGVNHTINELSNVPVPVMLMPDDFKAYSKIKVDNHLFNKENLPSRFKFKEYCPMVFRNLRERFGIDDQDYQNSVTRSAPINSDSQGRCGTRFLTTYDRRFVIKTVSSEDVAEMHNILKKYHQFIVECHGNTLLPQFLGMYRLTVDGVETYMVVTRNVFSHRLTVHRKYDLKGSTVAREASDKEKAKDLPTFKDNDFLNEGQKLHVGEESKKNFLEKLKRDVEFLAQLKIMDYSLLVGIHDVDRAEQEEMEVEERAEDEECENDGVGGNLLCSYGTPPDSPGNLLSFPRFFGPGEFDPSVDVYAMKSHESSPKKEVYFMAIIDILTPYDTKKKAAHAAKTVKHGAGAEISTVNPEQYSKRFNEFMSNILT
Sequence of ALK tyrosine kinase receptor (Homo sapiens), Q9UM73 [L1196M] (Q9UM73 whole entry L1196M, looked up): as the sequence (Q9UM73 whole entry C1156Y, looked up) above, with Y1156C, L1196M counted along it

CN([C@@H]1CCc2c(CC(=O)O)c3ccccc3n2C1)S(=O)(=O)c1ccc(F)cc1 [MK-7246]
residual activity [1]: 100% | residual activity [2]: 98% | residual activity [3]: 74% | residual activity [4]: 100% | residual activity [5]: 100% | residual activity [6]: 100% | residual activity [7]: 100% | residual activity [8]: 85% | residual activity [9]: 100% | residual activity [10]: 100% | residual activity [11]: 100% | residual activity [12]: 100% | residual activity [13]: 93% | residual activity [14]: 100% | residual activity [15]: 100% | residual activity [16]: 100% | residual activity [17]: 93% | residual activity [18]: 93% | residual activity [19]: 99% | residual activity [20]: 93% | residual activity [21]: 100% | residual activity [22]: 100% | residual activity [23]: 82% | residual activity [24]: 100% | residual activity [25]: 100% | residual activity [26]: 76% | residual activity [27]: 93% | residual activity [28]: 100% | residual activity [29]: 100% | residual activity [30]: 100% | residual activity [31]: 100% | residual activity [32]: 100% | residual activity [33]: 93% | residual activity [34]: 79% | residual activity [35]: 80% | residual activity [36]: 100% | residual activity [37]: 95% | residual activity [38]: 100% | residual activity [39]: 100% | residual activity [40]: 91% | residual activity [41]: 100% | residual activity [42]: 100% | inhibition [43]: 22.4% | inhibition (Rattus norvegicus): 54%

CN([C@@H]1CCc2c(CC(=O)O)c3cc(S(C)(=O)=O)ccc3n2C1)S(=O)(=O)c1ccc(F)cc1
residual activity [1]: 55% | residual activity [2]: 72% | residual activity [3]: 89% | residual activity [4]: 80% | residual activity [5]: 99% | residual activity [6]: 100% | residual activity [7]: 100% | residual activity [8]: 85% | residual activity [9]: 98% | residual activity [10]: 100% | residual activity [11]: 100% | residual activity [12]: 96% | residual activity [13]: 84% | residual activity [14]: 88% | residual activity [15]: 100% | residual activity [16]: 100% | residual activity [17]: 97% | residual activity [18]: 85% | residual activity [19]: 100% | residual activity [20]: 95% | residual activity [21]: 89% | residual activity [22]: 100% | residual activity [23]: 65% | residual activity [24]: 100% | residual activity [25]: 93% | residual activity [26]: 95% | residual activity [27]: 84% | residual activity [28]: 100% | residual activity [29]: 98% | residual activity [30]: 100% | residual activity [31]: 100% | residual activity [32]: 100% | residual activity [33]: 59% | residual activity [34]: 72% | residual activity [35]: 59% | residual activity [36]: 100% | residual activity [37]: 85% | residual activity [38]: 100% | residual activity [39]: 100% | residual activity [40]: 73% | residual activity [41]: 100% | residual activity [42]: 100% | inhibition [43]: 10.8% | inhibition (Rattus norvegicus): 41.4%
